# ChEMBL document CHEMBL4308841, “Synthesis, in vitro antiproliferative activity, and kinase inhibitory effects of pyrazole-containing diarylureas and diarylamides” (Eur J Med Chem, 2018)
# Tested on: MCF7
# Experiment: Growth inhibition of human MCF7 cells assessed as cell growth at 0.1 uM incubated for 48 hrs by sulforhodamine B assay relative to control
# Type: functional
# Conditions: MCF7, 48 h, read-out: Activity
row,SMILES,growth at 0.1 µM [%]
1,COc1cc(Cl)cc(-c2nn(-c3cccc(NC(=O)Nc4cccc(C(F)(F)F)c4)c3)cc2-c2ccncc2)c1,102
2,COc1cc(Cl)cc(-c2nn(-c3cccc(NC(=O)Nc4ccc(Cl)c(Cl)c4)c3)cc2-c2ccncc2)c1,94

# Tested on: OVCAR-4
# Experiment: Growth inhibition of human OVCAR4 cells assessed as cell growth at 100 uM incubated for 48 hrs by sulforhodamine B assay relative to control
# Type: functional
# Conditions: OVCAR-4, 48 h, read-out: Activity
row,SMILES,growth at 100 µM [%]
1,COc1cc(Cl)cc(-c2nn(-c3cccc(NC(=O)Nc4cccc(C(F)(F)F)c4)c3)cc2-c2ccncc2)c1,-13
2,COc1cc(Cl)cc(-c2nn(-c3cccc(NC(=O)Nc4ccc(Cl)c(Cl)c4)c3)cc2-c2ccncc2)c1,-4

# Tested on: SW-620
# Experiment: Growth inhibition of human SW620 cells incubated for 48 hrs by sulforhodamine B assay
# Type: functional, cell-based
# Conditions: SW-620, 48 h, read-out: GI50
row,SMILES,GI50 [µM]
1,COc1cc(Cl)cc(-c2nn(-c3cccc(NC(=O)Nc4cccc(C(F)(F)F)c4)c3)cc2-c2ccncc2)c1,2.3
2,COc1cc(Cl)cc(-c2nn(-c3cccc(NC(=O)Nc4ccc(Cl)c(Cl)c4)c3)cc2-c2ccncc2)c1,3.43

# Same assay, conditions: SW-620, 48 h, read-out: LC50
row,SMILES,LC50 [µM]
1,COc1cc(Cl)cc(-c2nn(-c3cccc(NC(=O)Nc4cccc(C(F)(F)F)c4)c3)cc2-c2ccncc2)c1,> 100
2,COc1cc(Cl)cc(-c2nn(-c3cccc(NC(=O)Nc4ccc(Cl)c(Cl)c4)c3)cc2-c2ccncc2)c1,> 100

# Same assay, conditions: SW-620, 48 h, read-out: TGI
row,SMILES,TGI [µM]
1,COc1cc(Cl)cc(-c2nn(-c3cccc(NC(=O)Nc4cccc(C(F)(F)F)c4)c3)cc2-c2ccncc2)c1,25.8
2,COc1cc(Cl)cc(-c2nn(-c3cccc(NC(=O)Nc4ccc(Cl)c(Cl)c4)c3)cc2-c2ccncc2)c1,> 100

# Same assay, conditions: SW-620, 48 h, read-out: pGI50 (converted)
row,SMILES,GI50 [µM]
1,COc1cc(Cl)cc(-c2nn(-c3cccc(NC(=O)Nc4cccc(C(F)(F)F)c4)c3)cc2-c2ccncc2)c1,2.29
2,COc1cc(Cl)cc(-c2nn(-c3cccc(NC(=O)Nc4ccc(Cl)c(Cl)c4)c3)cc2-c2ccncc2)c1,3.39

# Same assay, conditions: SW-620, 48 h, read-out: pLC50 (converted)
row,SMILES,LC50 [µM]
1,COc1cc(Cl)cc(-c2nn(-c3cccc(NC(=O)Nc4cccc(C(F)(F)F)c4)c3)cc2-c2ccncc2)c1,> 100
2,COc1cc(Cl)cc(-c2nn(-c3cccc(NC(=O)Nc4ccc(Cl)c(Cl)c4)c3)cc2-c2ccncc2)c1,> 100

# Same assay, conditions: SW-620, 48 h, read-out: pTGI (converted)
row,SMILES,TGI [µM]
1,COc1cc(Cl)cc(-c2nn(-c3cccc(NC(=O)Nc4cccc(C(F)(F)F)c4)c3)cc2-c2ccncc2)c1,26.9
2,COc1cc(Cl)cc(-c2nn(-c3cccc(NC(=O)Nc4ccc(Cl)c(Cl)c4)c3)cc2-c2ccncc2)c1,> 100

# Tested on: NCI-H522
# Experiment: Growth inhibition of human NCI-H522 cells assessed as cell growth at 1 uM incubated for 48 hrs by sulforhodamine B assay relative to control
# Type: functional
# Conditions: NCI-H522, 48 h, read-out: Activity
row,SMILES,growth at 1 µM [%]
1,COc1cc(Cl)cc(-c2nn(-c3cccc(NC(=O)Nc4cccc(C(F)(F)F)c4)c3)cc2-c2ccncc2)c1,33
2,COc1cc(Cl)cc(-c2nn(-c3cccc(NC(=O)Nc4ccc(Cl)c(Cl)c4)c3)cc2-c2ccncc2)c1,60

# Tested on: A549
# Experiment: Growth inhibition of human A549/ATCC cells assessed as cell growth at 0.1 uM incubated for 48 hrs by sulforhodamine B assay relative to control
# Type: functional
# Conditions: A549, 48 h, read-out: Activity
row,SMILES,growth at 0.1 µM [%]
1,COc1cc(Cl)cc(-c2nn(-c3cccc(NC(=O)Nc4cccc(C(F)(F)F)c4)c3)cc2-c2ccncc2)c1,96
2,COc1cc(Cl)cc(-c2nn(-c3cccc(NC(=O)Nc4ccc(Cl)c(Cl)c4)c3)cc2-c2ccncc2)c1,97

# Tested on: NCI-H322M
# Experiment: Growth inhibition of human NCI-H322M cells incubated for 48 hrs by sulforhodamine B assay
# Type: functional, cell-based
# Conditions: read-out: GI50
row,SMILES,GI50 [µM]
1,COc1cc(Cl)cc(-c2nn(-c3cccc(NC(=O)Nc4cccc(C(F)(F)F)c4)c3)cc2-c2ccncc2)c1,2.53
2,COc1cc(Cl)cc(-c2nn(-c3cccc(NC(=O)Nc4ccc(Cl)c(Cl)c4)c3)cc2-c2ccncc2)c1,3.26

# Same assay, conditions: read-out: LC50 (the source's name)
row,SMILES,CC50 [µM]
1,COc1cc(Cl)cc(-c2nn(-c3cccc(NC(=O)Nc4cccc(C(F)(F)F)c4)c3)cc2-c2ccncc2)c1,> 100
2,COc1cc(Cl)cc(-c2nn(-c3cccc(NC(=O)Nc4ccc(Cl)c(Cl)c4)c3)cc2-c2ccncc2)c1,> 100

# Same assay, conditions: read-out: TGI
row,SMILES,TGI [µM]
1,COc1cc(Cl)cc(-c2nn(-c3cccc(NC(=O)Nc4cccc(C(F)(F)F)c4)c3)cc2-c2ccncc2)c1,22.9
2,COc1cc(Cl)cc(-c2nn(-c3cccc(NC(=O)Nc4ccc(Cl)c(Cl)c4)c3)cc2-c2ccncc2)c1,> 100

# Same assay, conditions: read-out: pGI50 (converted)
row,SMILES,GI50 [µM]
1,COc1cc(Cl)cc(-c2nn(-c3cccc(NC(=O)Nc4cccc(C(F)(F)F)c4)c3)cc2-c2ccncc2)c1,2.63
2,COc1cc(Cl)cc(-c2nn(-c3cccc(NC(=O)Nc4ccc(Cl)c(Cl)c4)c3)cc2-c2ccncc2)c1,3.31

# Same assay, conditions: read-out: pLC50 (the source's name) (converted)
row,SMILES,CC50 [µM]
1,COc1cc(Cl)cc(-c2nn(-c3cccc(NC(=O)Nc4cccc(C(F)(F)F)c4)c3)cc2-c2ccncc2)c1,> 100
2,COc1cc(Cl)cc(-c2nn(-c3cccc(NC(=O)Nc4ccc(Cl)c(Cl)c4)c3)cc2-c2ccncc2)c1,> 100

# Same assay, conditions: read-out: pTGI (converted)
row,SMILES,TGI [µM]
1,COc1cc(Cl)cc(-c2nn(-c3cccc(NC(=O)Nc4cccc(C(F)(F)F)c4)c3)cc2-c2ccncc2)c1,22.4
2,COc1cc(Cl)cc(-c2nn(-c3cccc(NC(=O)Nc4ccc(Cl)c(Cl)c4)c3)cc2-c2ccncc2)c1,> 100

# Tested on: CAKI-1
# Experiment: Growth inhibition of human Caki1 cells assessed as cell growth at 100 uM incubated for 48 hrs by sulforhodamine B assay relative to control
# Type: functional
# Conditions: CAKI-1, 48 h, read-out: Activity
row,SMILES,growth at 100 µM [%]
1,COc1cc(Cl)cc(-c2nn(-c3cccc(NC(=O)Nc4cccc(C(F)(F)F)c4)c3)cc2-c2ccncc2)c1,-20
2,COc1cc(Cl)cc(-c2nn(-c3cccc(NC(=O)Nc4ccc(Cl)c(Cl)c4)c3)cc2-c2ccncc2)c1,-8

# Tested on: UO-31
# Experiment: Growth inhibition of human UO31 cells assessed as cell growth at 0.01 uM incubated for 48 hrs by sulforhodamine B assay relative to control
# Type: functional
# Conditions: UO-31, 48 h, read-out: Activity
row,SMILES,growth at 0.01 µM [%]
1,COc1cc(Cl)cc(-c2nn(-c3cccc(NC(=O)Nc4cccc(C(F)(F)F)c4)c3)cc2-c2ccncc2)c1,91
2,COc1cc(Cl)cc(-c2nn(-c3cccc(NC(=O)Nc4ccc(Cl)c(Cl)c4)c3)cc2-c2ccncc2)c1,89

# Tested on: T47D
# Experiment: Growth inhibition of human T47D cells assessed as cell growth at 100 uM incubated for 48 hrs by sulforhodamine B assay relative to control
# Type: functional
# Conditions: read-out: Activity
row,SMILES,growth at 100 µM [%]
1,COc1cc(Cl)cc(-c2nn(-c3cccc(NC(=O)Nc4cccc(C(F)(F)F)c4)c3)cc2-c2ccncc2)c1,-25
2,COc1cc(Cl)cc(-c2nn(-c3cccc(NC(=O)Nc4ccc(Cl)c(Cl)c4)c3)cc2-c2ccncc2)c1,-9

# Tested on: Malme-3M
# Experiment: Growth inhibition of human MALME-3M cells incubated for 48 hrs by sulforhodamine B assay
# Type: functional, cell-based
# Conditions: read-out: GI50
row,SMILES,GI50 [µM]
1,COc1cc(Cl)cc(-c2nn(-c3cccc(NC(=O)Nc4cccc(C(F)(F)F)c4)c3)cc2-c2ccncc2)c1,1.79
2,COc1cc(Cl)cc(-c2nn(-c3cccc(NC(=O)Nc4ccc(Cl)c(Cl)c4)c3)cc2-c2ccncc2)c1,2.06

# Same assay, conditions: read-out: LC50 (the source's name)
row,SMILES,CC50 [µM]
1,COc1cc(Cl)cc(-c2nn(-c3cccc(NC(=O)Nc4cccc(C(F)(F)F)c4)c3)cc2-c2ccncc2)c1,> 100
2,COc1cc(Cl)cc(-c2nn(-c3cccc(NC(=O)Nc4ccc(Cl)c(Cl)c4)c3)cc2-c2ccncc2)c1,> 100

# Same assay, conditions: read-out: TGI
row,SMILES,TGI [µM]
1,COc1cc(Cl)cc(-c2nn(-c3cccc(NC(=O)Nc4cccc(C(F)(F)F)c4)c3)cc2-c2ccncc2)c1,59.1
2,COc1cc(Cl)cc(-c2nn(-c3cccc(NC(=O)Nc4ccc(Cl)c(Cl)c4)c3)cc2-c2ccncc2)c1,75.5

# Same assay, conditions: read-out: pGI50 (converted)
row,SMILES,GI50 [µM]
1,COc1cc(Cl)cc(-c2nn(-c3cccc(NC(=O)Nc4cccc(C(F)(F)F)c4)c3)cc2-c2ccncc2)c1,1.78
2,COc1cc(Cl)cc(-c2nn(-c3cccc(NC(=O)Nc4ccc(Cl)c(Cl)c4)c3)cc2-c2ccncc2)c1,2.04

# Same assay, conditions: read-out: pLC50 (the source's name) (converted)
row,SMILES,CC50 [µM]
1,COc1cc(Cl)cc(-c2nn(-c3cccc(NC(=O)Nc4cccc(C(F)(F)F)c4)c3)cc2-c2ccncc2)c1,> 100
2,COc1cc(Cl)cc(-c2nn(-c3cccc(NC(=O)Nc4ccc(Cl)c(Cl)c4)c3)cc2-c2ccncc2)c1,> 100

# Same assay, conditions: read-out: pTGI (converted)
row,SMILES,TGI [µM]
1,COc1cc(Cl)cc(-c2nn(-c3cccc(NC(=O)Nc4cccc(C(F)(F)F)c4)c3)cc2-c2ccncc2)c1,5.89
2,COc1cc(Cl)cc(-c2nn(-c3cccc(NC(=O)Nc4ccc(Cl)c(Cl)c4)c3)cc2-c2ccncc2)c1,7.94

# Tested on: Hs-578T
# Experiment: Growth inhibition of human Hs578T cells assessed as cell growth at 0.1 uM incubated for 48 hrs by sulforhodamine B assay relative to control
# Type: functional
# Conditions: read-out: Activity
row,SMILES,growth at 0.1 µM [%]
1,COc1cc(Cl)cc(-c2nn(-c3cccc(NC(=O)Nc4cccc(C(F)(F)F)c4)c3)cc2-c2ccncc2)c1,93
2,COc1cc(Cl)cc(-c2nn(-c3cccc(NC(=O)Nc4ccc(Cl)c(Cl)c4)c3)cc2-c2ccncc2)c1,97

# Tested on: NCI/ADR-RES
# Experiment: Growth inhibition of human NCI/ADR-RES cells assessed as cell growth at 0.1 uM incubated for 48 hrs by sulforhodamine B assay relative to control
# Type: functional
# Conditions: read-out: Activity
row,SMILES,growth at 0.1 µM [%]
1,COc1cc(Cl)cc(-c2nn(-c3cccc(NC(=O)Nc4cccc(C(F)(F)F)c4)c3)cc2-c2ccncc2)c1,98
2,COc1cc(Cl)cc(-c2nn(-c3cccc(NC(=O)Nc4ccc(Cl)c(Cl)c4)c3)cc2-c2ccncc2)c1,98

# Tested on: CAKI-1
# Experiment: Growth inhibition of human Caki1 cells assessed as cell growth at 0.01 uM incubated for 48 hrs by sulforhodamine B assay relative to control
# Type: functional
# Conditions: CAKI-1, 48 h, read-out: Activity
row,SMILES,growth at 0.01 µM [%]
1,COc1cc(Cl)cc(-c2nn(-c3cccc(NC(=O)Nc4cccc(C(F)(F)F)c4)c3)cc2-c2ccncc2)c1,102
2,COc1cc(Cl)cc(-c2nn(-c3cccc(NC(=O)Nc4ccc(Cl)c(Cl)c4)c3)cc2-c2ccncc2)c1,96

# Tested on: HOP-92
# Experiment: Growth inhibition of human HOP92 cells assessed as cell growth at 10 uM incubated for 48 hrs by sulforhodamine B assay relative to control
# Type: functional
# Conditions: HOP-92, 48 h, read-out: Activity
row,SMILES,growth at 10 µM [%]
1,COc1cc(Cl)cc(-c2nn(-c3cccc(NC(=O)Nc4cccc(C(F)(F)F)c4)c3)cc2-c2ccncc2)c1,-27.3

# Tested on: MCF7
# Experiment: Growth inhibition of human MCF7 cells assessed as cell growth at 0.01 uM incubated for 48 hrs by sulforhodamine B assay relative to control
# Type: functional
# Conditions: MCF7, 48 h, read-out: Activity
row,SMILES,growth at 0.01 µM [%]
1,COc1cc(Cl)cc(-c2nn(-c3cccc(NC(=O)Nc4cccc(C(F)(F)F)c4)c3)cc2-c2ccncc2)c1,91
2,COc1cc(Cl)cc(-c2nn(-c3cccc(NC(=O)Nc4ccc(Cl)c(Cl)c4)c3)cc2-c2ccncc2)c1,94

# Tested on: 786-0
# Experiment: Growth inhibition of human 786-0 cells assessed as cell growth at 0.1 uM incubated for 48 hrs by sulforhodamine B assay relative to control
# Type: functional
# Conditions: 786-0, 48 h, read-out: Activity
row,SMILES,growth at 0.1 µM [%]
1,COc1cc(Cl)cc(-c2nn(-c3cccc(NC(=O)Nc4cccc(C(F)(F)F)c4)c3)cc2-c2ccncc2)c1,99
2,COc1cc(Cl)cc(-c2nn(-c3cccc(NC(=O)Nc4ccc(Cl)c(Cl)c4)c3)cc2-c2ccncc2)c1,98
